Earlier results in patent EP4398053A1, “CONTROL METHOD FOR […] OF A DYNAMIC SYSTEM AND […]” (Universidade de Aveiro, priority 2023, dated 2024).

Conditions: drug elimination within the body; drug-specific model parameter

## O=P1(N(CCCl)CCCl)NCCCO1 (stereo not shown) [Cyclophosphamide]
  drug elimination rate λ: 4.16 day⁻¹
